Assay results from US20250026753A1, “FUSED TRIAZINONE DERIVATIVES AND METHODS OF USING THE SAME” (Rgenta Therapeutics, Inc., priority 2021, published 2025).
Structures can show the parent of a compound that is named as a salt.

How the values were obtained:
K562 = assay: Cell proliferation assay (CellTiterGlo, 72 hour incubation), K562; format: cell-based; settings: Homo sapiens, K562 cells, inhibition of cell proliferation, CellTiterGlo luminescence
Protocol: (§1) Various cancer cell lines including K562 and COLO201, were treated with the compounds of the present disclosure to assess their effect on inhibiting cell proliferation.
(§2) For compound preparation, test compounds were diluted in duplicates from 10 mM stocks in 11-points 1:3 serial dilutions in DMSO. Then 125 nL test compounds at the serial dilutions were dispensed into 384-well assay plate using Echo dispenser. Staurosporine at 1 mM stock (5 μM final concentration) and DMSO (0.500 final concentration) were used as the positive and negative controls respectively.
(§3) To prepare cell lines, each frozen cell line stock was resuspended and grown in proper growth medium to a density of 40,000 cells/mL. Then 25 μL of cell suspension were dispensed into the assay plate to give seed cell density at 1,000 cells/well, compounds at 50 μM top concentration with 11-point serial dilutions, and 0.5% o DMSO final concentration. Assay plates were then centrifuged at 300 rpm for 1 minute and then incubated at 37° C., 9500 humidity, 500 CO2 for 72 hours. After the 72 hour incubation, the assay plate and its contents were equilibrated at room temperature for approximately 30 minutes. 25 μL of CellTiterGlo reagent was added to the assay plate and mixed for two minutes on an orbital shaker. Then after 10 minutes of incubation of assay plate at from temperature, the luminescence (RLU) signals in each well were recorded using Envision plate reader, then converted to percentage inhibition values using the signals in staurosporine and DMSO treated wells as the references. IC50 values were determined by curve fitting in Levenberg-Marquardt algorithm.

COLO201 = assay: Cell proliferation assay (CellTiterGlo, 72 hour incubation), COLO201; format: cell-based; settings: Homo sapiens, COLO 201, COLO201 cells, inhibition of cell proliferation, CellTiterGlo luminescence
Protocol: as §1, §2, §3

IC50 (K562)	IC50 (COLO201)	SMILES
< 1 µM	1 to 10 µM	Cc1cn2cc(-c3nc(=O)n4cc(N5CCNCC5)c(C)cc4n3)cc(F)c2n1 [Compound 115, 2-(8-fluoro-2-methylimidazo[1,2-a]pyridin-6-yl)-8-methyl-7-(piperazin-1-yl)-4H-pyrido[1,2-a][1,3,5]triazin-4-one hydrochloride]
1 to 10 µM	1 to 10 µM	COc1cc2nc(-c3cc(F)c4nc(C)cn4c3)nc(=O)n2cc1N1CCNCC1 [Compound 119, 2-(8-fluoro-2-methylimidazo[1,2-a]pyridin-6-yl)-8-methoxy-7-(piperazin-1-yl)-4H-pyrido[1,2-a][1,3,5]triazin-4-one]
≥ 10 µM	≥ 10 µM	COc1c(N2CCNCC2)ccc2nc(-c3cc(F)c4nc(C)cn4c3)nc(=O)n12 [Compound 120, 2-(8-fluoro-2-methylimidazo[1,2-a]pyridin-6-yl)-6-methoxy-7-(piperazin-1-yl)-4H-pyrido[1,2-a][1,3,5]triazin-4-one formic acid]
< 1 µM	< 1 µM	Cc1cn2cc(-c3nc(=O)n4cc(N5CCN[C@@H](C)C5)cc(F)c4n3)cc(C)c2n1 [Compound 121, (S)-2-(2,8-dimethylimidazo[1,2-a]pyridin-6-yl)-9-fluoro-7-(3-methylpiperazin-1-yl)-4H-pyrido[1,2-a][1,3,5]triazin-4-one hydrochloride]
1 to 10 µM	≥ 10 µM	Cc1cn2cc(-c3nc(=O)n4c(C)c(N5CCNCC5)ccc4n3)cc(F)c2n1 [Compound 122, 2-(8-fluoro-2-methylimidazo[1,2-a]pyridin-6-yl)-6-methyl-7-(piperazin-1-yl)-4H-pyrido[1,2-a][1,3,5]triazin-4-one hydrochloride]
1 to 10 µM	≥ 10 µM	Cc1cn2cc(-c3nc(=O)n4cc(N5CC6(CNC6)C5)ccc4n3)cc(F)c2n1 [Compound 127, 7-2,6-diazaspiro[3.3]heptan-2-yl-2-8-fluoro-2-methylimidazo[1,2-a]pyridin-6-yl-4H-pyrido[1,2-a][1,3,5]triazin-4-one trifluoroacetic acid]
< 1 µM	< 1 µM	Cc1cc2cc(-c3nc(=O)n4cc(N5CCN[C@@H](C)C5)cc(F)c4n3)cc(C)n2n1 [Compound 131, 2-{2,7-dimethylpyrazolo[1,5-a]pyridin-5-yl}-9-fluoro-7-[(3S)-3-methylpiperazin-1-yl]-4H-pyrido[1,2-a][1,3,5]triazin-4-one]

Further lines, the compound ahead of its results:

SMILES	IC50 (K562)	IC50 (COLO201)
Cc1cn2cc(-c3nc(=O)n4cc(C5=CCNCC5)ccc4n3)cc(F)c2n1 [Compound 111, 2-(8-fluoro-2-methylimidazo[1,2-a]pyridin-6-yl)-7-(1,2,3,6-tetrahydropyridin-4-yl)-4H-pyrido[1,2-a][1,3,5]triazin-4-one hydrochloride]	1 to 10 µM	< 1 µM
COc1cc(N2CCNCC2)cn2c(=O)nc(-c3cc(F)c4nc(C)cn4c3)nc12 [Compound 114, 2-(8-fluoro-2-methylimidazo[1,2-a]pyridin-6-yl)-9-methoxy-7-(piperazin-1-yl)-4H-pyrido[1,2-a][1,3,5]triazin-4-one hydrochloride]	1 to 10 µM	1 to 10 µM
Cc1cn2cc(-c3nc(=O)n4cc(N5CCN[C@@H](C)C5)cc(F)c4n3)cc(F)c2n1 [Compound 116, (S)-9-fluoro-2-(8-fluoro-2-methylimidazo[1,2-a]pyridine-6-yl)-7-(3-methylpiperazin-1-yl)-4H-pyrido[1,2-a][1,3,5]triazin-4-one]	< 1 µM	< 1 µM
Cc1cn2cc(-c3nc(=O)n4cc(N5CCN[C@@H](C)C5)cc(C)c4n3)cc(F)c2n1 [Compound 117, (S)-2-(8-fluoro-2-methylimidazo[1,2-a]pyridin-6-yl)-9-methyl-7-(3-methylpiperazin-1-yl)-4H-pyrido[1,2-a][1,3,5]triazin-4-one hydrochloride]	< 1 µM	< 1 µM
Cc1cn2cc(-c3nc(=O)n4cc(N5CC6CCCC(C5)N6)ccc4n3)cc(F)c2n1 [Compound 118, 7-(3,9-diazabicyclo[3.3.1]nonan-3-yl)-2-(8-fluoro-2-methylimidazo[1,2-a]pyridin-6-yl)-4H-pyrido[1,2-a][1,3,5]triazin-4-one hydrochloride]	< 1 µM	1 to 10 µM
C[C@H]1CN(c2ccc3nc(-c4cc(F)c5nn(C)cc5c4)nc(=O)n3c2)CCN1 [Compound 133, (S)-2-(7-fluoro-2-methyl-2H-indazol-5-yl)-7-(3-methylpiperazin-1-yl)-4H-pyrido[1,2-a][1,3,5]triazin-4-one hydrochloride]	< 1 µM	1 to 10 µM
